Where two headings read alike, the source gives them in different places.
What was measured:
MCF-7 (breast, ER+) = experiment: Human tumor cell line panel, sulforhodamine B; type: cell-based; conditions: MCF7, 48 hours, mean ± sd
HT-29 (colon) = experiment: Human tumor cell line panel, sulforhodamine B; type: cell-based; conditions: 48 hours, mean ± sd
[1] = system: Cox-2 activity in human endothelial cells; experiment: TNFα-induced PGE2 production, ELISA; type: cell-based; conditions: 100 ng of TNFα/mL 18 hours
Procedure: (§1) FIG. 6. Inhibition of TNFα-induced Cox-2 activity by Compound 62. Rat IEC6 cells (Panel A) or human endothelial cells (Panel B) were incubated for 18 hours with dimethylsulfoxide (DMSO) as a solvent control, or 100 ng of TNFα/mL in the presence of DMSO or […] of Compound 62. Levels of PGE2 secreted into the medium were quantified by ELISA. Values represent the mean±sd for triplicate samples in a typical experiment.
(§2) To determine the effects of the SK inhibitors on Cox-2 activity, an ELISA assay was used to measure PGE2 production by IEC6 rat intestinal epithelial cells and human endothelial cells treated with TNFα.

[2] = system: Cox-2 activity in IEC6 rat intestinal epithelial cells; experiment: TNFα-induced PGE2 production, ELISA; type: cell-based; conditions: 100 ng of TNFα/mL 18 hours
Procedure: as §1, §2

[3] = Oral pharmacokinetics in mice (PEG400); type: in vivo; conditions: mouse, blood, 100 mg/kg oral gavage in PEG400, female Swiss-Webster mice
Procedure: Oral pharmacokinetic studies were performed on Compounds 62 and 57. Each compound was dissolved in PEG400 and administered to female Swiss-Webster mice at a dose of 100 mg/kg by oral gavage. Mice were anesthetized and blood was removed via cardiac puncture at 5 minutes, 30 minutes, 1, 2, and 8 hours. Concentrations of the test compounds were determined using liquid-liquid extraction, appropriate internal standards and reverse phase HPLC with UV detection. Control blood samples were run to identify compound-specific peaks. Pharmacokinetic parameters were calculated using the WINNONLIN analysis software package (Pharsight). Non-compartmental and compartmental models were tested, with the results shown in Table 7 derived from the best fit equations.

[4] = system: MCF-7 human breast adenocarcinoma cells; experiment: Cytotoxicity, SRB binding assay; type: cell-based; conditions: MCF7, inhibition of cell proliferation, 48 h, read-out: MCF-7 IC50
Summary of the method: (§3)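 Cells exposed to varying compound doses for 48 h, then survival measured by sulforhodamine B staining. IC50 is the concentration giving 50% proliferation inhibition, in μM, as mean±sd of replicate trials.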

[5] = system: MCF-10A non-transformed human breast epithelial cells; experiment: Cytotoxicity, SRB binding assay; type: cell-based; conditions: inhibition of cell proliferation, 48 h, read-out: MCF-10A IC50
Summary of the method: as §3

[6] = system: mice, multiple cycles of DSS-induced inflammation; experiment: Chronic DSS-colitis model (35-day); type: in vivo, mouse
Procedure: FIG. 13. Effects of Compound 62 on the DAI in the chronic DSS-colitis model. Mice received 2 cycles (7 days per cycle) of DSS (1.5% cycle 1 and 1% cycle 2), 2 cycles of normal drinking water and were randomized by DAI on Day 28 into groups of 8 mice. The mice were then treated as follows: No DSS (▪)—normal drinking water and orally dosed with PEG400 every day for 7 days (water control); DSS alone (▴)—drinking water containing 1.5% DSS and orally dosed with PEG daily for 7 days; DSS+Compound 62 (▾)—drinking water containing 1.5% DSS and orally dosed with Compound 62 (50 mg/kg) every day for 7 days; DSS+Dipentum (♦)—drinking water containing 1.5% DSS and orally dosed with Dipentum (50 mg/kg). *p<0.001 versus No DSS group.
A 35-day model of IBD was used to evaluate the effectiveness of the SK inhibitors in mice that experience multiple cycles of DSS-induced inflammation. This chronic model is similar to the acute model, except that the DSS concentration in the drinking water is lower and animals receive periodic exposure to DSS (DSS on days 1-7, water on Days 8-13, DSS on day 14-21, water on Days 22-27 and then DSS until the completion of the study on Day 35). In these experiments, treatment of the mice with an SK inhibitor or Dipentum began on Day 28 and continued daily until the completion of the study. The DAI index was monitored every other day until Day 28 and then daily until Day 35. Animals were sacrificed on Day 35, and changes in the colon length and cytokine profiles were measured.

Panc-1 (pancreas) = experiment: Human tumor cell line panel, sulforhodamine B; type: cell-based; conditions: 48 hours, mean ± sd
[7] = system: mouse JC mammary adenocarcimona cell line growing subcutaneously in Balb/c mice
Procedure: The antitumor activity of the representative SK inhibitors were evaluated using a syngeneic tumor model that uses the mouse JC mammary adenocarcimona cell line growing subcutaneously in immunocompetent Balb/c mice (Lee et al., 2003, Oncol Res 14: 49).
In FIG. 1, Balb/c mice, 6-8 weeks old, were injected subcutaneously with 10^6 JC cells suspended in phosphate-buffered saline. The SK inhibitors Compounds 62 and 57 were dissolved in PEG400 and administered to mice every-other day at a dose of 100 mg/kg. Body weights and tumor volumes were monitored daily. In FIG. 1, tumor growth is expressed as the tumor volume relative to day 1 for each animal.

SMILES: O=C(NCc1ccncc1)C12CC3CC(C1)CC(c1ccc(Cl)cc1)(C3)C2 [Compound 62, 3-(4-Chloro-phenyl)-adamantane-1-carboxylic acid (pyridin-4-ylmethyl)-amide]
- IC50 (MCF-7 (breast, ER+)): 18.4 ± 7.4 µM
- IC50 (HT-29 (colon)): 48.1 ± 7.6 µM
- induction of Cox-2 activity by TNFα (PGE2 production) [1]: strongly suppressed
- induction of Cox-2 activity by TNFα (PGE2 production) [2]: strongly suppressed
- Cmax [3]: 55.8 µM
- Tmax [3]: 0.5 h
- half-life [3]: 7.3 h
- AUC(0-inf) ([3]; read-out: AUC0→∞ (μM * h)): 452 µM·h
- AUC(0-inf) ([3]; read-out: AUC0→∞ (μg * h/mL)): 172 µg·h/mL
- IC50 [4]: 17 µM
- IC50 [5]: 21 µM
- colon length ([6]; 50 mg/kg oral daily Day 28-35, DSS alone 4.9±0.2, water 7.8±0.3): 6.2±0.2 cm
- increase in DAI ([6]; 50 mg/kg oral daily from Day 28 to Day 35, third DSS exposure): significantly suppressed
- colon SK expression (immunohistochemistry) ([6]; DSS mice, 50 mg/kg oral daily): clearly reduced
- serum level of IL-6 ([6]; at sacrifice, Day 35): reduced
- colon S1P levels ([6]; oral 50 mg/kg daily, 7 days prior to sacrifice): significant reductions
- colon levels of pro-inflammatory cytokines TNFα, IL-1β, IFN-γ and IL-6 ([6]; treated during the final DSS cycle): reduced levels
- IC50 (Panc-1 (pancreas)): 32.8 ± 0.1 µM
- inhibition of tumor growth relative to controls ([7]; 100 mg/kg oral every-other day in PEG400): 69%
- In vivo activity ([7]; JC tumor model, intraperitoneal (ip) or oral (po) administration): active - ip and po
- toxicity to the mice in dose-response study ([7]; mouse, in vivo): No toxicity

Reference: US8557800B2, “Sphingosine kinase inhibitors” (Apogee Biotechnology Corporation, priority 2005, dated 2013)
